For test [1], the target named is GDP-bound protein (aa 1-169), containing both G12C and C118A amino acid substitutions (Homo sapiens, UniProt P01116, C118A/G12C). Nature of the test: Coupled Nucleotide Exchange Assay (SOS-mediated nucleotide exchange, AlphaScreen). It is filed as biochemical. To be noted: 2 hours compound pre-incubation. The gist of the method: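 AlphaScreen signal after SOS (aa 564-1049)/GTP-driven exchange (1 h) on GDP-loaded His-[…] G12C/C118A (aa 1-169), following a 2 h compound pre-incubation in HEPES pH 7.4 buffer with 10 mM MgCl2 and 0.01% Triton X-100. IC50s fitted by 4-parameter logistic model.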
In general terms: Alpha assays give light when donor and acceptor beads are brought close together.

Test [2] deals with Phosphorylation of ERK½ in MIA PaCa-2 cells. The test can be described thus: Phospho-ERK½ MSD Assay in MIA PaCa-2 cells. The test is classed as cell-based. Particulars: 4 hours compound treatment, 10 ng/mL EGF for 10 min, read-out: p-ERK IC50 (MIA PaCa-2). The gist of the method:
(§1)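 MIA PaCa-2 or A549 cells (25,000/well, RPMI with 10% FBS) exposed to compound titration for 4 h at 37 °C, then stimulated with 10 ng/mL EGF for 10 min and lysed in RIPA. Phospho-ERK1/2 quantified by MSD whole-cell lysate immunoassay; IC50 from 4-parameter logistic fit.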

The subject of test [3] is Phosphorylation of ERK½ in A549 cells. The test can be described thus: Phospho-ERK½ MSD Assay in A549 cells. The test is classed as cell-based. To be noted: 4 hours compound treatment, 10 ng/mL EGF for 10 min, read-out: p-ERK IC50 (A549). The method in brief:
as §1

Setting [4] is: Homo sapiens, MIA PaCa-2, MIA PaCa-2 cells.

These results are taken from patent US11285135B2 (AMGEN INC., priority 2016, dated 2022).

Like-named read-outs stand apart in the source and are kept apart here.

Sequence of GDP-bound protein (aa 1-169), containing both G12C and C118A amino acid substitutions (P01116 1-169 isoform P01116-2 G12C/C118A): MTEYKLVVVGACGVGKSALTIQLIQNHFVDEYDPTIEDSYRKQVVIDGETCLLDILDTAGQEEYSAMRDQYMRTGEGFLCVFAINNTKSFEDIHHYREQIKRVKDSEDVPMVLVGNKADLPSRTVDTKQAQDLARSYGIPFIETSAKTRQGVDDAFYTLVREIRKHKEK

Usually IC50 stands for the point on the concentration scale where inhibition reaches its midpoint. `C=CC(=O)N1CCN(c2nnc(Oc3ccccc3)c3cc(-c4c(O)cccc4F)c(Cl)cc23)CC1` [Example 16, 1-(4-(7-Chloro-6-(2-fluoro-6-hydroxyphenyl)-4-phenoxy-1-phthalazinyl)-1-piperazinyl)-2-propen-1-one]: in test [1], the “Coupled exchange IC50” value is 2.93 µM. Further, the IC50 in test [2] (setting [4]) came out at 8.62 µM; in test [3] (Homo sapiens, A549, A549 cells) it was 33.3 µM.

In the case of `C=CC(=O)N1CCN(c2nnc(-c3cccc4[nH]ccc34)c3cc(-c4c(O)cccc4F)c(Cl)cc23)CC1` [Example 10-9, 1-(4-(7-chloro-6-(2-fluoro-6-hydroxyphenyl)-4-(1H-indol-4-yl)-1-phthalazinyl)-1-piperazinyl)-2-propen-1-one], in test [1], the “Coupled exchange IC50” value is 1.68 µM. The IC50 in test [2] (setting [4]) is 33.6 µM; in test [3] (Homo sapiens, A549, A549 cells) it was over 100 µM.

For `C=CC(=O)N1CCN(c2nc(=O)n(CC3CC3)c3nc(-c4c(O)cccc4F)c(Cl)cc23)CC1` [Example 38, 6-chloro-1-(cyclopropylmethyl)-7-(2-fluoro-6-hydroxyphenyl)-4-(4-(2-propenoyl)-1-piperazinyl)pyrido[2,3-d]pyrimidin-2(1H)-one], the “Coupled exchange IC50” value in test [1] is 0.484 µM. For the same compound, the IC50 in test [2] (setting [4]) is 1.39 µM; in test [3] (Homo sapiens, A549, A549 cells) it was over 33.3 µM.

As to `C=CC(=O)N1CCN(c2snc3nc(-c4c(C)ccc5[nH]ncc45)c(Cl)cc23)C(C)C1` (racemic) [Example 2-6, 1-(4-(5-chloro-6-(5-methyl-1H-indazol-4-yl)[1,2]thiazolo[3,4-b]pyridin-3-yl)-3-methyl-1-piperazinyl)-2-propen-1-one], the “Coupled exchange IC50” value in test [1] turned out to be 1.59 µM. Further, the IC50 in test [2] (setting [4]) is 2.97 µM; in test [3] (Homo sapiens, A549, A549 cells), 3.7 µM.

As for `C=CC(=O)N1CCN(c2snc3nc(-c4cc(O)cc5ccccc45)c(Cl)cc23)C(C)C1` (racemic) [Example 2-5, 1-(4-(5-chloro-6-(3-hydroxy-1-naphthalenyl)[1,2]thiazolo[3,4-b]pyridin-3-yl)-3-methyl-1-piperazinyl)-2-propen-1-one], in test [1], the “Coupled exchange IC50” value turned out to be 0.684 µM. The IC50 is 5.46 µM in test [2] (setting [4]) and 3.7 µM in test [3] (Homo sapiens, A549, A549 cells).

For `C=CC(=O)N1CCN(c2snc3c(F)c(-c4c(C)ccc5[nH]ncc45)c(Cl)cc23)[C@@H](C)C1` [Example 1-10, 1-((3S)-4-(5-chloro-7-fluoro-6-(5-methyl-1H-indazol-4-yl)-2,1-benzothiazol-3-yl)-3-methyl-1-piperazinyl)-2-propen-1-one], in test [1], the “Coupled exchange IC50” value worked out at 0.381 µM. Also, the IC50 in test [2] (setting [4]) is 1.09 µM; in test [3] (Homo sapiens, A549, A549 cells) it was 11.1 µM.

As to `C=CC(=O)N1CCN(c2snc3c(F)c(-c4cc(O)cc5ccccc45)c(Cl)cc23)[C@@H](C)C1` (single isomer, unassigned) [Example 1-19-2], in test [1], the “Coupled exchange IC50” value stood at 5.10 µM. For the same compound, the IC50 in test [2] (MIA PaCa-2 cells) and in test [3] (A549 cells) was over 100 µM in each case.

With `C=CC(=O)N1CCN(c2snc3nc(-c4cc(O)cc5ccccc45)c(Cl)cc23)CC1` [Example 2-1, 1-(4-(5-chloro-6-(3-hydroxy-1-naphthalenyl)[1,2]thiazolo[3,4-b]pyridin-3-yl)-1-piperazinyl)-2-propen-1-one], the “Coupled exchange IC50” value in test [1] was 0.341 µM. Besides, the IC50 is 1.89 µM in test [2] (setting [4]) and 3.7 µM in test [3] (Homo sapiens, A549, A549 cells).

As to `C=CC(=O)N1CCN(c2nc(=O)n(-c3ccccc3C(C)C)c3cc(-c4c(O)cccc4F)c(Cl)cc23)CC1` [Example 8-1, 6-Chloro-7-(2-fluoro-6-hydroxyphenyl)-1-(2-(2-propanyl)phenyl)-4-(4-(2-propenoyl)-1-piperazanyl)-2(1H)-quinazolinone], the “Coupled exchange IC50” value in test [1] was 0.542 µM. In addition, the IC50 in test [2] (MIA PaCa-2 cells) came out at 0.211 µM; in test [3] (Homo sapiens, A549, A549 cells) it was 62.3 µM.

`C=CC(=O)N1CC(Nc2snc3c(F)c(-c4cc(O)cc5ccccc45)c(Cl)cc23)C1` [Example 1-20, 1-(3-((5-chloro-7-fluoro-6-(3-hydroxy-1-naphthalenyl)-2,1-benzothiazol-3-yl)amino)-1-azetidinyl)-2-propen-1-one]: in test [1], the “Coupled exchange IC50” value turned out to be 0.683 µM. The half-maximal inhibitory concentration (IC50) is 4.99 µM in test [2] (setting [4]) and over 100 µM in test [3] (Homo sapiens, A549, A549 cells).

In the case of `C=CC(=O)N(C)C1CN(c2snc3c(F)c(-c4cc(O)cc5ccccc45)c(Cl)cc23)C1` [Example 5-1, N-(1-(5-Chloro-7-fluoro-6-(3-hydroxy-1-naphthalenyl)-2,1-benzothiazol-3-yl)-3-azetidinyl)-N-methyl-2-propenamide], the “Coupled exchange IC50” value in test [1] amounted to 0.875 µM. Also, the half-inhibitory concentration (IC50) was 2.86 µM in test [2] (setting [4]) and over 100 µM in test [3] (Homo sapiens, A549, A549 cells).

`C=C(CBr)C(=O)N1CCN(c2snc3c(F)c(-c4cc(O)cc5ccccc45)c(Cl)cc23)CC1` [Example 18-2, 2-(Bromomethyl)-1-(4-(5-chloro-7-fluoro-6-(3-hydroxy-1-naphthalenyl)-2,1-benzothiazol-3-yl)-1-piperazinyl)-2-propen-1-one]: the “Coupled exchange IC50” value in test [1] came out at 0.760 µM. Moreover, the IC50 is over 100 µM in test [2] (setting [4]) and over 100 µM in test [3] (Homo sapiens, A549, A549 cells).

On to `C=CC(=O)N1CCN(c2nc(=O)n(-c3ccccc3C(C)C)c3cc(-c4c(C)ccc5[nH]ncc45)c(Cl)cc23)CC1` (single isomer, unassigned) [Example 11-1-2, 6-chloro-7-(5-methyl-1H-indazol-4-yl)-1-(2-(2-propanyl)phenyl)-4-(4-(2-propenoyl)-1-piperazinyl)-2(1H)-quinazolinone], for which the “Coupled exchange IC50” value in test [1] is 0.151 µM. For the same compound, the IC50 was 0.016 µM in test [2] (MIA PaCa-2 cells) and 21.7 µM in test [3] (A549 cells).

Regarding `C=CC(=O)N1CCN(c2snc3c(F)c(-c4cc(O)cc(F)c4F)c(Cl)cc23)CC1` [Example 3-16, 1-(4-(5-chloro-6-(2,3-difluoro-5-hydroxyphenyl)-7-fluoro-2,1-benzothiazol-3-yl)-1-piperazinyl)-2-propen-1-one], in test [1], the “Coupled exchange IC50” value is 2.60 µM. Also, the IC50 in test [2] (setting [4]) was 21.3 µM; in test [3] (Homo sapiens, A549, A549 cells) it was over 100 µM.

`C=CC(=O)N1CCN(c2nc(=O)n(-c3ccccc3C(C)C)c3cc(-c4c(O)cccc4F)c(Cl)cc23)[C@@H](C)C1` (single isomer, unassigned) [Example 8-3-2]: the “Coupled exchange IC50” value in test [1] is 0.340 µM. Moreover, the IC50 in test [2] (MIA PaCa-2 cells) was 0.028 µM; in test [3] (A549 cells) it was over 100 µM.

As to `C=CC(=O)N1CCN(c2snc3c(F)c(-c4nc(N)ccc4Cl)c(Cl)cc23)CC1` [Example 6-1, 1-(4-(6-(6-Amino-3-chloro-2-pyridinyl)-5-chloro-7-fluoro-2,1-benzothiazol-3-yl)-1-piperazinyl)-2-propen-1-one], the “Coupled exchange IC50” value in test [1] came to 0.537 µM. For the same compound, the IC50 in test [2] (setting [4]) was determined as 1.3 µM; in test [3] (Homo sapiens, A549, A549 cells), 3.7 µM.

Consider `C=CC(=O)N1CCN(c2snc3c(F)c(-c4cc(O)cc5ccccc45)c(Cl)cc23)[C@@H](CO)C1` [Example 1-15], for which the “Coupled exchange IC50” value in test [1] stood at 0.562 µM. Also, the half-inhibitory concentration (IC50) in test [2] (setting [4]) was 4.7 µM; in test [3] (Homo sapiens, A549, A549 cells), over 100 µM.

For `C=CC(=O)N1CC2(C1)CN(c1snc3c(F)c(-c4cc(O)cc5ccccc45)c(Cl)cc13)C2` [Example 4-1, 1-(6-(5-Chloro-7-fluoro-6-(3-hydroxynaphthalen-1-yl)benzo[c]isothiazol-3-yl)-2,6-diazaspiro[3.3]heptan-2-yl)prop-2-en-1-one], the “Coupled exchange IC50” value in test [1] was 0.529 µM. The IC50 in test [2] (setting [4]) is 2.34 µM; in test [3] (Homo sapiens, A549, A549 cells), over 100 µM.

As for `C=CC(=O)N1CCN(c2nc(=O)n(-c3ccccc3C(C)C)c3nc(-c4c(O)cccc4F)c(Cl)cc23)[C@@H](C)C1` [Example 8-6, 6-chloro-7-(2-fluoro-6-hydroxyphenyl)-4-((2S)-2-methyl-4-(2-propenoyl)-1-piperazinyl)-1-(2-(2-propanyl)phenyl)pyrido[2,3-d]pyrimidin-2(1H)-one], the “Coupled exchange IC50” value in test [1] was found to be 0.100 µM. The IC50 is 0.012 µM in test [2] (MIA PaCa-2 cells) and 69.9 µM in test [3] (A549 cells).

With `C=CC(=O)N1CCN(c2snc3c(F)c(-c4cc(O)cc5ccccc45)c(Cl)cc23)CC1` (single isomer, unassigned) [Example 3-1-1, 1-(4-(5-chloro-7-fluoro-6-(3-hydroxy-1-naphthalenyl)-2,1-benzothiazol-3-yl)-1-piperazinyl)-2-propen-1-one], the “Coupled exchange IC50” value in test [1] came out at 3.00 µM. The IC50 in test [2] (MIA PaCa-2 cells) and in test [3] (A549 cells) was over 100 µM throughout.

Take `C=CC(=O)N1CCN(c2snc3nc(-c4c(O)cccc4F)c(Cl)cc23)[C@@H](C)C1` (racemic) [Example 2-3, 1-(4-(5-chloro-6-(2-fluoro-6-hydroxyphenyl)[1,2]thiazo[3,4-b]pyridin-3-yl)-3-methyl-1-piperazinyl)-2-propen-1-one]: the “Coupled exchange IC50” value in test [1] is 4.05 µM. Besides, the IC50 is 6.53 µM in test [2] (setting [4]) and over 100 µM in test [3] (Homo sapiens, A549, A549 cells).

With `C=CC(=O)N1CCN(c2snc3nc(-c4cc(O)cc5ccccc45)c(Cl)cc23)C(C)C1` (single isomer, unassigned) [Example 2-5-1, 1-((3S)-4-(5-chloro-6-(3-hydroxy-1-naphthalenyl) [1,2]thiazolo[3,4-b]pyridin-3-yl)-3-methyl-1-piperazinyl)-2-propen-1-one or 1-((3R)-4-(5-chloro-6-(3-hydroxy-1-naphthalenyl) [1,2]thiazolo[3,4-b]pyridin-3-yl)-3-methyl-1-piperazinyl)-2-propen-1-one], in test [1], the “Coupled exchange IC50” value is 0.308 µM. Further, the IC50 in test [2] (MIA PaCa-2 cells) is 1.14 µM; in test [3] (A549 cells) it was over 100 µM.
